In data set [1] the test system is adenine nephropathy model rats. The class given is in vivo, Slc:Wistar rat (male). An excerpt: • · Rat: Slc:Wistar rat (male) delivered at 12 weeks of age (Japan SLC, Inc.) • · Powder feed: AIN-93G powder feed (Funabashi Farm Co., Ltd.) • · Feed for laboratory animal: Labo MR Stock (Nosan Corporation) • · Adenine: (Tokyo Chemical Industry Co., Ltd.) • · Cerium oxide dispersion: Cerium oxide dispersion prepared in [Preparation of Cerium Oxide Dispersion]
• (i) Weighed was 250 g of a powder feed, which was then kneaded with a kitchen machine. • (ii) After kneaded with a kitchen machine for 3 minutes, the feed adhered on the wall surface was scraped off, and then kneaded again for 3 minutes. Approximately 100 mL of hot water was then added evenly. • (iii) The feed was once put together by hands, and further kneaded with the kitchen machine until it became homogeneous. • (iv) The thus kneaded feed was shaped into a rod through a sausage machine. • (v) The thus shaped feed was cut into a cylindrical shape approximately 2.5 cm in diameter and 1.5 cm in thickness. • (vi) The thus shaped cylindrical feed was dried at 38°C in an incubator for two days. • (vii) The feed was weighed to estimate a proportion of residual water content, and dried until the proportion drops to 10% or below. • (viii) The prepared feed was put in a zipper bag, and stored in a refrigerator.
A special feed was prepared by modifying step (ii) for the normal group feed, as described below. (ii) (Ade): While keeping the content under kneading, 0.625 g of adenine was added in small portions, the content was kneaded with a kitchen machine for 3 minutes, the feed adhered on the wall surface was scraped off, and the content was kneaded again for 3 minutes. Approximately 100 mL of hot water was then added evenly.
A special feed was prepared by modifying steps (i) and (ii) for (2) Adenine Group Feed, as described below. • (i) (Ade + Dispersion (A)): Weighed was 246.1 g of the powder feed, which was then kneaded with a kitchen machine. • (ii) (Ade + Dispersion (A)): While keeping the content under kneading, 0.625 g of adenine was added in small portions, the content was kneaded with the kitchen machine for 3 minutes, the feed adhered on the wall surface was scraped off, and the content was kneaded again for 3 minutes. Next, while keeping the content under kneading, 32.7 g of cerium oxide dispersion was added in small portions, the content was kneaded with the kitchen machine for 3 minutes, the feed adhered on the wall surface was scraped off, and the content was kneaded again for 3 minutes. Approximately 70 mL of hot water was then added evenly. […]

The subject of data set [2] is adenine nephropathy model rats. Briefly: Uremic toxin lowering action by cerium chloride: indoxyl sulfate in whole blood by HPLC. Conditions: blood collected by dissection; feed of adenine combined with cerium chloride. Format: in vivo. On the procedure: A solvent for precipitation (5.56 µmol/L 2-naphthalenesulfonic acid solution in acetonitrile) and a blood sample (whole blood) were mixed in a 1.5 mL polypropylene tube, the mixture was allowed to stand still at room temperature, and then centrifuged to cause solid-liquid separation, thereby obtaining a supernatant. A 10 mmol/L aqueous ammonium acetate solution was added to the thus obtained supernatant, and the mixture was centrifuged to obtain a supernatant. The operation above diluted the blood sample 50 times, with the final concentration of the thus-added 2-naphthalenesulfonic acid adjusted to 1 µmol/L.
Fig. 19 illustrates a diagram, with the indoxyl sulfate concentration in the blood sample collected by dissection plotted on the ordinate, and with the total mole amount of cerium contained in 100 g of feed plotted on the abscissa.

The mark [3] stands for this setting: blood collected by dissection on Day 28, substance mixed in adenine feed, trend against content in 100 g feed.

Consider “cerium(III) chloride heptahydrate [cerium chloride]”, for which, in data set [1] (setting [3]), the “blood urea nitrogen (BUN)” value is given as “decline as the cerium chloride content in the feed increased”, the “serum creatinine (CRE)” value is recorded as “decline as the cerium chloride content in the feed increased” and the “serum phosphorus (IP)” value is reported as “decline as the cerium chloride content in the feed increased”. The “alanine aminotransferase (ALT)” value in data set [1] (rat, in vivo) is on record as “equivalent to that in the normal group”. The “indoxyl sulfate concentration in whole blood” value in data set [2] is listed as “declining tendency”.

(Values after patent publication EP4653003A1, “PHARMACEUTICAL COMPOSITION HAVING CERIUM COMPOUND CONTAINING TRIVALENT CERIUM AS ACTIVE INGREDIENT” (Applause Pharma Co., Ltd., priority 2023, dated 2024).)
